From patent US10030016B2 (Sunesis Pharmaceuticals, Inc., priority 2009, dated 2018) come the findings set out here.

Structures can show the parent of a compound that is named as a salt.

In general, EC50 refers to the concentration at which the effect is half-maximal.

The test system of one test is phospho-akt (Thr308) in PC-3 cells. Description: Inhibition of phospho-akt (Thr308) in PC-3 cells, MSD phospho-akt 308 ELISA kit. In kind it is cell-based. The conditions noted are these: Homo sapiens; inhibition of P308 Akt in PC-3 cells using MSD, 2 hours, no serum; read-out: EC50. The procedure:
PC-3 cells were harvested by trypsin and counted. Cells were plated in coated 96-well flat bottom plates (plate 15,000 cells/well in 100 ul growth media (10% FBS, 1× pen-strep) an place in an incubator overnight.
Subject inhibitors were stocked at 50 mM, then diluted to 30 mM (4.8 μl cpd plus […] DMSO) in 100% DMSO. Three-fold dilutions were performed from 30 mM stock. (4 μl into 8 ul 100% DMSO). Aliquots of 1.0 μl of inhibitor solution were transferred into SF Medium (using deep well block).
Control wells were prepared as follows. For DMSO high controls, 1.0 μl of 100% DMSO was added into 1.0 ml SF. For low controls for PC-3 cells, 5 μM of Wortmannin (10 μl of 1 mM Wortmannin stock was added into 2 ml SF Medium. The supernatant media was removed and the plate was blotted. 100 μl of controls/media or compound/media were added to cells and placed in incubator for 2 hours. The supernatant media was removed and the plate was blotted. 55 μl of the MSD complete lysis buffer was added (10 mls Tris Lysis buffer, 200 ul protease inhibitor, 100 ul phosphatase inhibitor 1, and 100 ul phosphatase inhibitor II). The plate was placed on a plate shaker for 60 mins at 4 deg.
MSD plates were blocked for 1 hour by adding 150 μl of Blocking Solution (3% BSA) to each well. The MSD plates were washed 4× with TBST, and 50 μl lysates were transferred to MSD plate and place on plate shaker shake at 4 degrees O/N, light shaking (speed 3.5). The plate was washed 4× with TBST.
25 μl of Ab detection solution was added to each well. The plate was sealed and incubated 1 hr RT, light shaking (speed 3.5). The plate was washed 4 times with TBST. 150 μl of Read Buffer was added (5 mls 4×MSD Read Buffer+15 mls water). Finally the plate was read immediately on the MSD plate reader.
Regarding `N#Cc1cnc(NCc2ccc(-c3cnc4[nH]ncc4c3)cc2)c(C(=O)NCc2ccc(F)c(F)c2)c1` [Example 396, 5-Cyano-N-(3,4-difluoro-benzyl)-2-[4-(1H-pyrazolo[3,4-b]pyridin-5-yl)-benzylamino]-nicotinamide], the EC50 is less than 1000 nM. As to `C[C@H](NC(=O)c1nc(C(F)(F)F)cnc1NCc1ccc(-c2cnc3[nH]nc(N)c3c2)cc1)c1ccc(F)c(F)c1` [Example 428, (S)-3-(4-(3-amino-1H-pyrazolo[3,4-b]pyridin-5-yl)benzylamino)-N-(1-(3,4-difluorophenyl)ethyl)-6-(trifluoromethyl) pyrazine-2-carboxamide], the EC50 is less than 1000 nM. With `C[C@H](NC(=O)c1nc(C#N)cnc1NCC#Cc1ccc2nc(N)ncc2c1)c1ccc(F)c(F)c1` [Example 258, (S)-3-(3-(2-aminoquinazolin-6-yl)prop-2-ynylamino)-6-cyano-N-(1-(3,4-difluorophenyl)ethyl) pyrazine-2-carboxamide], the EC50 was less than 1000 nM.

With `C[C@H](NC(=O)c1cc(C#N)cnc1NCC#Cc1ccc2nc(N)ncc2c1)c1ccc(F)cc1` [Example 257, (S)-2-(3-(2-aminoquinazolin-6-yl)prop-2-ynylamino)-5-cyano-N-(1-(4-fluorophenyl)ethyl)nicotinamide], the concentration for a half-maximal effect (EC50) was less than 1000 nM.

For the compound `Nc1ncc(-c2ccc(CNc3ncc(C(F)(F)F)cc3C(=O)Nc3ccc(F)cc3)cc2)nc1CO` [Example 242, 2-[4-(5-Amino-6-hydroxy-methyl-pyrazin-2-yl)-benzylamino]-N-(4-fluoro-phenyl)-5-trifluoromethyl-nicotinamide], the EC50 was less than 1000 nM.

As to `N#Cc1cc(F)ccc1NC(=O)c1cc(C(F)(F)F)cnc1NCc1ccc(-c2cnc3[nH]nc(N)c3c2)cc1` [Example 418, 2-(4-(3-amino-1H-pyrazolo [3,4-b]pyridin-5-yl)benzylamino)-N-(2-cyano-4-fluorophenyl)-5-(trifluoromethyl)nicotinamide], the half-maximal effective concentration (EC50) lay within 1000 to 10000 nM. The same measure, in the same setting: for `C[C@H](NC(=O)c1cc(C#N)cnc1NCc1ccc(-c2cnc3[nH]c(=O)[nH]c3c2)c(F)c1)c1ccc(F)cc1` [Example 127, (S)-5-cyano-2-(3-fluoro-4-(2-oxo-2,3-dihydro-1H-imidazo[4,5-b]pyridin-6-yl)benzyl-amino)-N-(1-(4-fluorophenyl)ethyl) nicotinamide] the value was less than 1000 nM; for `C[C@H](NC(=O)c1cc(C#N)cnc1N[C@H](C)c1ccc(-c2cnc3[nH]nc(N)c3c2)nc1)c1ccc(F)cc1` [Example 416, 2-{(R)-1-[6-(3-Amino-1H-pyrazolo[3,4-b]pyridin-5-yl)-pyridin-3-yl]-ethylamino}-5-cyano-N-[(S)-1-(4-fluoro-phenyl)-ethyl]-nicotinamide], less than 1000 nM; for `C[C@H](NC(=O)c1cc(C#N)cnc1NCc1ccc(-c2cnc3[nH]c(=O)n(C)c3c2)cc1)c1ccc(F)cc1` [Example 140, (S)-5-cyano-N-(1-(4-fluorophenyl)ethyl)-2-(4-(1-methyl-2-oxo-2,3-dihydro-1H-imidazo [4,5-b]pyridin-6-yl)benzylamino)nicotinamide], less than 1000 nM.

Regarding `C[C@H](NC(=O)c1nc(C(F)(F)F)cnc1N[C@H](C)c1ccc(-c2cnc3[nH]nc(N)c3c2)cc1)c1ccc(F)c(F)c1` [Example 427, 3-((R)-1-(4-(3-amino-1H-pyrazolo[3,4-b]pyridin-5-yl)phenyl)ethylamino)-N-((S)-1-(3,4-difluorophenyl)ethyl)-6-(trifluoromethyl) pyrazine-2-carboxamide], the EC50 was in the range of 1000 to 10000 nM.

Turning to `Cc1nc(N)cnc1-c1ccc(CNc2ncc(C#N)cc2C(=O)N[C@@H](C)c2ccc(F)cc2)cc1` [Example 107, (S)-2-(4-(5-amino-3-methylpyrazin-2-yl)benzylamino)-5-cyano-N-(1-(4-fluorophenyl)ethyl)nicotinamide], the EC50 was more than 10000 nM.

Regarding `C[C@H](NC(=O)c1cc(C#N)cnc1NCc1ccc(-c2cnc3[nH]nc(N)c3c2)cc1Cl)c1ccc(F)cc1` [Example 406, 2-[4-(3-Amino-1H-pyrazolo [3,4-b]pyridin-5-yl)-2-chloro-benzylamino]-5-cyano-N-[(S)-1-(4-fluoro-phenyl)-ethyl]-nicotinamide], the EC50 fell in the range of 1000 to 10000 nM. Same read-out and setting: the value for `C[C@H](NC(=O)c1nc(C#N)cnc1N[C@H](C)c1ccc(-c2cnc3[nH]nc(N)c3c2)nc1)c1ccc(F)c(F)c1` [Example 415, 3-{(R)-1-[6-(3-Amino-1H-pyrazolo[3,4-b]pyridin-5-yl)-pyridin-3-yl]-ethylamino}-6-cyano-pyrazine-2-carboxylic acid [(S)-1-(3,4-difluoro-phenyl)-ethyl]-amide] was less than 1000 nM; that for `C[C@H](NC(=O)c1nc(C#N)cnc1NCc1ccc(-c2cnc(N)c(CO)n2)cc1)c1ccc(F)c(F)c1` [Example 241, 3-[4-(5-Amino-6-hydroxy-methyl-pyrazin-2-yl)-benzylamino]-6-cyano-pyrazine-2-carboxylic acid [(S)-1-(3,4-difluoro-phenyl)-ethyl]-amide] was less than 1000 nM; that for `C[C@H](NC(=O)c1cc(C#N)cnc1NCc1ccc(-c2cnc3[nH]nc(N)c3c2)cc1F)c1ccc(F)cc1` [Example 407, 2-[4-(3-Amino-1H-pyrazolo [3,4-b]pyridin-5-yl)-2-fluoro-benzylamino]-5-cyano-N-[(S)-1-(4-fluoro-phenyl)-ethyl]-nicotinamide] was less than 1000 nM.

The same test, now with this note: Homo sapiens; inhibition of P308 Akt in PC-3 cells, 2 hours, no serum, MSD; read-out: EC50.
Take `C[C@H](NC(=O)c1cccnc1NCc1ccc(-c2ccc3ncnc(NCCO)c3c2)s1)c1ccc(F)cc1` [Example 2.14, (S)-N-(1-(4-fluorophenyl)ethyl)-2-(((5-(4-(2-hydroxyethylamino)quinazolin-6-yl)thiophen-2-yl)methyl)amino)nicotinamide]: the EC50 was 1000 to 10000 nM.

As to `C[C@H](NC(=O)c1cccnc1NCc1ccc(-c2ccc3nc(N)sc3c2)s1)c1ccc(F)cc1` [Example 2.22, (S)-2-(((5-(2-aminobenzo[d]thiazol-6-yl)thiophen-2-yl)methyl)amino)-N-(1-(4-fluorophenyl)ethyl) nicotinamide], the EC50 was more than 10000 nM. On the same count and under the same terms, for `Nc1ncnc2ccc(-c3ccc(CNc4ncccc4C(=O)NCc4cncc(F)c4)s3)cc12` [Example 3.65, 2-({[5-(4-aminoquinazolin-6-yl)thiophen-2-yl]methyl}amino)-N-[(5-fluoropyridin-3-yl)methyl] pyridine-3-carboxamide (TFA salt)] the value was 1000 to 10000 nM; for `COCCNC(=O)c1cccnc1NCc1ccc(-c2ccc3ncnc(N)c3c2)s1` [Example 3.35, 2-({[5-(4-aminoquinazolin-6-yl)thiophen-2-yl]methyl}amino)-N-(2-methoxyethyl)pyridine-3-carboxamide (TFA salt)], 1000 to 10000 nM; for `Cc1ccc(NC(=O)c2cccnc2NCc2ccc(-c3ccc4ncnc(N)c4c3)s2)cc1F` [Example 3.50, 2-({[5-(4-aminoquinazolin-6-yl)thiophen-2-yl]methyl}amino)-N-(3-fluoro-4-methylphenyl) pyridine-3-carboxamide (TFA salt)], more than 10000 nM. The same measure, in the same setting: the value for `C[C@H](NC(=O)c1cccnc1NCc1ccc(-c2cc3c(cn2)ncn3C)s1)c1ccc(F)cc1` [Example 2.6, (S)-N-(1-(4-fluorophenyl)ethyl)-2-(((5-(1-methyl-1H-imidazo [4,5-c]pyridin-6-yl)thiophen-2-yl)methyl)amino)nicotinamide] was more than 10000 nM; that for `CCc1cnc(NCc2ccc(-c3ccc4ncnc(N)c4c3)s2)c(C(=O)NCc2ccc(F)c(F)c2)c1` [Ex. 8.11, 2-({[5-(4-aminoquinazolin-6-yl)thiophen-2-yl]methyl}amino)-N-(3,4-difluorobenzyl)-5-ethylpyridine-3-carboxamide] was less than 1000 nM. On the same count and under the same terms, the value for `Nc1ncnc2ccc(-c3ccc(CNc4ncc(Br)cc4S(=O)(=O)NCc4ccc(F)c(F)c4)s3)cc12` [Example 20.1, 2-(((5-(4-aminoquinazolin-6-yl)thiophen-2-yl)methyl)amino)-5-bromo-N-(3,4-difluorobenzyl)pyridine-3-sulfonamide] was more than 10000 nM.
